Laboratory results from ChEMBL document CHEMBL1135499, “Further characterization of structural requirements for ligands at the dopamine D(2) and D(3) receptor: exploring the thiophene moiety” (J Med Chem, 2002).

Key:
[1] = target: D(2) dopamine receptor (Homo sapiens, UniProt P14416); experiment: biochemical
Description: In vitro binding affinity at human Dopamine receptor D2 expressed in CHO K1 cells was measured by its ability to displace [3H]- N-0437

[2] = target: D(3) dopamine receptor (Homo sapiens, UniProt P35462); experiment: biochemical
Description: In vitro binding affinity at human Dopamine receptor D3 expressed in CHO K1 cells was measured by its ability to displace [3H]spiperone

[3] = Oral bioavailability in rat; assay type: ADME, organism-based; details: in vivo

D(2) dopamine receptor, sequence (P14416 whole entry): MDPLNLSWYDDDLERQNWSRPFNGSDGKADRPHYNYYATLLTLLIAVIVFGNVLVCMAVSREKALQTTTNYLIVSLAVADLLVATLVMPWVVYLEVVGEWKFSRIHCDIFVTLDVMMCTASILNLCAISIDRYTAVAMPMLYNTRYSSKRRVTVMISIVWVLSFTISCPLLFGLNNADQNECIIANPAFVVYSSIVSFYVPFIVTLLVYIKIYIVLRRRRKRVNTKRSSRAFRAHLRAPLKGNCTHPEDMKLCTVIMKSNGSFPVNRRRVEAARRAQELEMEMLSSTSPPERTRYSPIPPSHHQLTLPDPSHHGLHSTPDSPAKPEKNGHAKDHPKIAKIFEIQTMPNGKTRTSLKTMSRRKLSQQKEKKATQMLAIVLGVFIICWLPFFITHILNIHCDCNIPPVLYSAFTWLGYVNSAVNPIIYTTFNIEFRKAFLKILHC
D(3) dopamine receptor, sequence (P35462 whole entry): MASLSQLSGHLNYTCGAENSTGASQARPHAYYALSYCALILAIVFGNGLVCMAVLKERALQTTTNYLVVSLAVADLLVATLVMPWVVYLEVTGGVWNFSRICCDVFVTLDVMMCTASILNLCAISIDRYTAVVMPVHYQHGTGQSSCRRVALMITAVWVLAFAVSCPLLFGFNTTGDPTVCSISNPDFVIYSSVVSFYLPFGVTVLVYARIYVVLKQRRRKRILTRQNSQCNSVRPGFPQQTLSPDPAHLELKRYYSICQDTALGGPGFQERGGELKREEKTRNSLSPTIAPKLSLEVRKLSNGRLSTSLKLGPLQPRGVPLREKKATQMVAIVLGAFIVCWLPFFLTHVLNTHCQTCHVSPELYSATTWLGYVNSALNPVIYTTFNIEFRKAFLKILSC

SMILES	Ki [1]	Ki [2]	bioavailability [3]
CCCN1CCOC2c3ccsc3CCC21 (stereo unspecified)	630 nM	240 nM	–
c1cc2c(s1)CCC1NCCOC21 (stereo unspecified)	> 4780 nM	3000 nM	–
CCCN1CC(c2ccccc2)OC2c3cc(O)ccc3CCC21 (racemic)	375 nM	12 nM	–
CCCN(CCC)C1CCc2ccsc2C1 (stereo unspecified)	27 nM	28 nM	10%
CCCN(CCc1ccsc1)CCc1ccsc1	439 nM	108 nM	–
CCCN(CCC)[C@@H]1Cc2cccc(O)c2C[C@H]1C	14 nM	0.54 nM	–

Continued, in another order:

Ki [1]	Ki [2]	SMILES	bioavailability [3]
1080 nM	117 nM	CCCN(CCc1ccsc1)CCc1cccs1	–
3680 nM	83 nM	Oc1ccc2c(c1)C1OCCN(CCc3cccs3)C1CC2 (racemic)	–
3110 nM	60 nM	CCCN(CCC)CC1CCc2ccsc2C1 (stereo unspecified)	–
2040 nM	247 nM	CCCN(CCC)CC1CCc2sccc2C1 (stereo unspecified)	–
> 3680 nM	1570 nM	Oc1ccc2c(c1)C1OCCN(CCc3ccccc3)C1CC2 (racemic)	–
20 nM	40 nM	CCCN(CCC)C1CCc2sccc2C1 (stereo unspecified)	> 10%
